Measured values reported in US20180221296A1, “INTRASITE ADMINISTRATION AND DOSING METHODS AND PHARMACEUTICALS FOR USE THEREIN” (HKL Medical, LLC, priority 2017, published 2018).
Like-named read-outs stand apart in the source and are kept apart here.

Legend:
[1] = cited from earlier work
[2] = in vivo; cited from earlier work
[3] = system: Vancomycin-Resistant Staphylococcus aureus (VRSA); conditions: certain strains of VRSA; cited from earlier work
[4] = Intrasite vancomycin pharmacodynamics trial: adverse reactions; type: in vivo, human; conditions: IS dose 2 mg/cm^2, spinal surgery patients
Description: (§1) Intrasite Vancomycin Pharmacodynamics Trial.
Adverse Reactions to IS Vancomycin. […] There was one example of a post-operative gram-negative bacterial surgical site infection which could not have been prevented by vancomycin because its spectrum of antimicrobial effects dies not cover this organism.

[5] = Intrasite vancomycin pharmacodynamics trial: wound seroma vancomycin levels via wound drain
Method: Intrasite Vancomycin Pharmacodynamics Trial. A single dose cohort pharmacodynamics trial was performed under FDA IND# 117494, the first FDA IND awarded for intrasite vancomycin. This dose cohort involved administration of a low dose of intrasite lyophilized vancomycin into complex instrumented spinal surgery wounds in adult patients. At multiple specific time points after surgery measurements were taken of vancomycin and […] levels in the blood stream and from the wound seroma fluid (via the wound drain). Measurements of endotoxin levels within the blood stream and seroma fluid were also taken at the same time points following surgery. All personnel present during administration of IS vancomycin were required to wear a certified fit N-90 mask to prevent inhalation of aerosolized vancomycin powder, which is a known safety risk for pulmonary fibrosis.
Intrasite Dosing of Vancomycin. Intrasite dosing was based on the surface area of the wound (tissues within the spinal wound lying deep to the skin). Wound surface area was estimated by a wound Length×Depth×2 calculation where length and mean depth were measured directed by the surgeon after surgical opening of the wound was completed. To assure safety, the maximum IS dose of vancomycin given to patients in this cohort was limited to well below the normal maximum safe IV dose of 2.5 g. Given that maximum wound surface areas created in spinal deformity patients are on the order of 1000 cm^2, a surface area dose of 2 mg/cm^2 provides for a maximum single dose of ˜2 g IS vancomycin, considered safe even if the entire dose absorbed into the circulation. To improve the homogeneity of IS dose application one third of the total calculated dose was delivered to the subepidermal tissues of the wound, superficial to the perimuscular fascia, one third of the total dose was applied to the subfascial muscle, bone, and other tissues, and one third of the total dose was milled with the bone graft before implantation.
Wound Vancomycin Levels Following a Single Intrasite Dose. Wound seroma vancomycin levels were measured via the wound drain at multiple time points for 4 days after a single intrasite dose given at the conclusion of surgery. […] However, vancomycin is a time-dependent killer of microbes and levels must exceed kill concentrations for up to 48 hrs to be completely effective.

[6] = Intrasite vancomycin pharmacodynamics trial: systemic circulation serum vancomycin concentration; type: in vivo, human; conditions: all measured time-points, single IS dose (2 mg/cm^2; moderate doses); detectability limit printed >1.7 μg/ml
Method: as §1
Intrasite Dosing of Vancomycin.
Systemic Circulation Serum Vancomycin Concentrations after IS Dose. In all of the 10 patients of the 2 mg/cm^2 dose cohort serum vancomycin levels remained undetectable at all measured time-points after a single IS dose. Detectability limit in these experiments was >1.7 μg/ml. This is interpreted as a strong indicator of safety with regard to systemic side effects and toxicities as well as evidence of a very wide therapeutic index when vancomycin is administered IS. This strongly contrasts to the higher probability of systemic toxicity and narrow therapeutic index when vancomycin is administered IV.

[7] = measured at 2 hrs after single IS dose 2 mg/cm^2, 10 patients
[8] = single IS dose 2 mg/cm^2, 10 patients
[9] = within the first 48 hrs after single IS dose 2 mg/cm^2, 10 patients

## CO[C@H]1/C=C/O[C@@]2(C)Oc3c(C)c(O)c4c(O)c(c5c(nc6cc(C)ccn65)c4c3C2=O)NC(=O)/C(C)=C\C=C\[C@H](C)[C@H](O)[C@@H](C)[C@@H](O)[C@@H](C)[C@H](OC(C)=O)[C@@H]1C [Rifaximin]
[1]; in vivo, po
  oral bioavailability: < 0.4%

## NC[C@H]1CC[C@H](C(=O)O)CC1 [TXA, trans-4-[aminomethyl]cyclohexanecarboxylic acid]
[1]; oral
  oral bioavailability: 34%
[2]
  half-life in the blood stream: approximately 2 hrs

## CN[C@H](CC(C)C)C(=O)N[C@H]1C(=O)N[C@@H](CC(N)=O)C(=O)N[C@H]2C(=O)N[C@H]3C(=O)N[C@H](C(=O)N[C@H](C(=O)O)c4cc(O)cc(O)c4-c4cc3ccc4O)[C@H](O)c3ccc(c(Cl)c3)Oc3cc2cc(c3O[C@@H]2O[C@H](CO)[C@@H](O)[C@H](O)[C@H]2O[C@H]2C[C@](C)(N)[C@H](O)[C@H](C)O2)Oc2ccc(cc2Cl)[C@H]1O [vancomycin]
[3]
  minimum 90% bactericidal concentration (MBC^90): 64 µg/mL
[4]
  adverse reactions related to IS vancomycin: no patient- or practitioner-identified adverse reactions
[5]; [7]
  highest vancomycin concentration, subfascial wound compartment: 952 µg/mL
  highest vancomycin concentration, suprafascial wound compartment: 6110 µg/mL
[5]; moderate IS doses, also with seroma fluid removed via drains, preliminary evidence
  time vancomycin remains in high enough wound concentration for efficient suppression of gram-positive microorganisms: at least 4 days
[5]; [8]
  time mean subfascial vancomycin concentration exceeds threshold to kill VRSA (128 μg/ml): less than 24 hrs
  time mean suprafascial vancomycin concentration exceeds threshold to kill VRSA (128 μg/ml): more than 48 hrs
[5]; [9]
  lowest vancomycin concentration, subfascial wound compartment: 4.1 µg/mL
  lowest vancomycin concentration, suprafascial wound compartment: 16.2 µg/mL
[6]
  serum vancomycin level after IS dose: undetectable
